In the experiment the target is Signal transducer and activator of transcription 3 (Homo sapiens, UniProt P40763). In words: Inhibition of human STAT3 expressed in human HepG2 cells incubated for 1.5 hrs by luciferase assay. The class given is cell-based.

The record followed here is ChEMBL document CHEMBL5233227, “Allosteric inhibitors of the STAT3 signaling pathway” (Eur J Med Chem, 2020).

Chain of Signal transducer and activator of transcription 3 (P40763 whole entry): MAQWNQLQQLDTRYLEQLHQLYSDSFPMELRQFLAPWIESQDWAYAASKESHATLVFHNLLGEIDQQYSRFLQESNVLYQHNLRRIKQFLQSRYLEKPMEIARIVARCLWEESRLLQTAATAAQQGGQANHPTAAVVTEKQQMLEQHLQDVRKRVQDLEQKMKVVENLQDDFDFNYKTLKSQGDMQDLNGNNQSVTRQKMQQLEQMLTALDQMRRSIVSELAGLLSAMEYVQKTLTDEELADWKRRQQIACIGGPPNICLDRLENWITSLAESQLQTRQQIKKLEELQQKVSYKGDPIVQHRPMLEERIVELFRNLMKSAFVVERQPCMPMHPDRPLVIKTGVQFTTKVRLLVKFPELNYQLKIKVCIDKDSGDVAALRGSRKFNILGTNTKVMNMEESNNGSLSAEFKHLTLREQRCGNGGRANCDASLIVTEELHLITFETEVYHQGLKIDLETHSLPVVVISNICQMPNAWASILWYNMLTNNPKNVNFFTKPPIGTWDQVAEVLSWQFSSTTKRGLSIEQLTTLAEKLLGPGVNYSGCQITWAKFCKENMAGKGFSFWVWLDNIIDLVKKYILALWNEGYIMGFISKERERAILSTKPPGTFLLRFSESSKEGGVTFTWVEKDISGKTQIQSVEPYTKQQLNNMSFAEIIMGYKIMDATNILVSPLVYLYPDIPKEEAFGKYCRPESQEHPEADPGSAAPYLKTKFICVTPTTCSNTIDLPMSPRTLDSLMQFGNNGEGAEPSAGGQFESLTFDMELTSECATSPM

The term IC50 denotes the concentration that inhibits the measured activity by half. For `CC(CO)C1OC(=O)C=C2C13OC3CC13COC(=O)C1(C)CC(O)CC23C` (stereo unspecified), the 50% inhibitory concentration (IC50) worked out at 200 nM.
